Data on 4 molecules can be found in US8476253B2, “Amide derivative” (Daiichi Sankyo Company, Limited, priority 2009, dated 2013).

Molecules are shown by their SMILES. Counter-ions that a name gives are not always drawn.

Test [1] deals with muscarine M3 receptor. Nature of the test: Effect of suppressing methacholine-induced airway contraction (in vivo, intratracheal administration). Also noted: species or system guinea pig. As to conditions: guinea pigs, intratracheal administration 60 minutes before 30 μg/kg i.v. methacholine; AUC of increase in airway pressure over 10 minutes. The gist of the method:
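Anesthetized, gallamine-paralysed, ventilated male Hartley guinea pigs (350–550 g); compound in 5% glucose given intratracheally 60 min before 30 μg/kg i.v. methacholine. Airway pressure AUC over 10 min scored; ID50 from inhibition versus 5% glucose vehicle group.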

Test [2] addresses T1, neurokinin NK2 receptor (Cavia porcellus, UniProt Q64077).
T1 construct: Using healthy guinea pigs (body weight, 350 to 550 g; Hartley male guinea pigs); from tissue; host or cells: live anaesthetised Hartley male guinea pigs (airway, in vivo)
T1 sequence (Q64077 1-402): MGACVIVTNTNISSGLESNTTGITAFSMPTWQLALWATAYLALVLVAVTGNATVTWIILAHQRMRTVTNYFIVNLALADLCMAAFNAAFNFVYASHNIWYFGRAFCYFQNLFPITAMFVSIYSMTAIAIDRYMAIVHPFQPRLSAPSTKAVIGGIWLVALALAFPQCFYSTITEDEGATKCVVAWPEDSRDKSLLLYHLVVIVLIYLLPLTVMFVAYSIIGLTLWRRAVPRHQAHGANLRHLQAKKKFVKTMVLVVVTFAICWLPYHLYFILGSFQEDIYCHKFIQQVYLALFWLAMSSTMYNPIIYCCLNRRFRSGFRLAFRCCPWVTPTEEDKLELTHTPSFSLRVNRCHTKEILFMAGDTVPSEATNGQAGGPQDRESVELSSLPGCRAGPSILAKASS
As to the kind of experiment: Effect of suppressing neurokinin A-induced airway contraction (in vivo, intratracheal administration). Set-up: species or system guinea pig. As to conditions: guinea pig; guinea pigs, intratracheal administration 60 minutes before 4 μg/kg i.v. NKA; AUC of increase in airway pressure over 10 minutes; read-out: ID50 (the source's name). The gist of the method: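 Anesthetized, gallamine-paralysed, ventilated male Hartley guinea pigs received compound in 5% glucose intratracheally 60 minutes before 4 μg/kg NKA i.v. AUC of airway pressure increase over 10 minutes gave inhibition versus vehicle controls, expressed as ID50.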

In the case of `CN(CCN1CCC(OC(=O)Nc2ccccc2-c2ccccc2)CC1)C(=O)COCCCNc1ccc(C(=O)N(C)CCCN(C)C(=O)CO[C@H]2Cc3ccccc3C23CCN(CC[C@@]2(c4ccc(F)cc4)CN(C(=O)c4cc(C(F)(F)F)cc(C(F)(F)F)c4)CO2)CC3)cc1` [Example 27, 1-{2-[{[3-({4-[{3-[({[(2S)-1′-{2-[(5R)-3-[3,5-Bis(trifluoromethyl)benzoyl]-5-(4-fluorophenyl)-1,3-oxazolidin-5-yl]ethyl}-2,3-dihydrospiro[indene-1,4′-piperidin]-2-yl]oxy}acetyl)(methyl)amino]propyl}(methyl)carbamoyl]phenyl}amino)propoxy]acetyl}(methyl)amino]ethyl}piperidin-4-yl biphenyl-2-ylcarbamate trihydrochloride], in test [1], the ID50 was determined as 0.0218 mg/kg. In addition, the ED50 in test [2] is 0.0135 mg/kg.
Turning to `Cc1cc(NCCCCCC(=O)N(C)CCN2CCC(OC(=O)Nc3ccccc3-c3ccccc3)CC2)sc1C(=O)N(C)CCCN(C)C(=O)CO[C@H]1Cc2ccccc2C12CCN(CC[C@@]1(c3ccc(F)cc3)CN(C(=O)c3cc(C(F)(F)F)cc(C(F)(F)F)c3)CO1)CC2` [Example 30, 1-(2-{[6-({5-[{3-[({[(2S)-1′-{2-[(5R)-3-[3,5-Bis(trifluoromethyl)benzoyl]-5-(4-fluorophenyl)-1,3-oxazolidin-5-yl]ethyl}-2,3-dihydrospiro[indene-1,4′-piperidin]-2-yl]oxy}acetyl)(methyl)amino]propyl}(methyl)carbamoyl]-4-methyl-2-thienyl}amino)hexanoyl](methyl)amino}ethyl)piperidin-4-yl biphenyl-2-ylcarbamate trihydrochloride], in test [1], the ID50 is 0.0088 mg/kg. Moreover, the ED50 in test [2] is 0.0632 mg/kg.
In test [1], `CN(CCN1CCC(OC(=O)Nc2ccccc2-c2ccccc2)CC1)C(=O)CCCNc1ccc(C(=O)N(C)CCCN(C)C(=O)CO[C@H]2Cc3ccccc3C23CCN(CC[C@@]2(c4ccc(F)cc4)CN(C(=O)c4cc(C(F)(F)F)cc(C(F)(F)F)c4)CO2)CC3)cc1` [Example 34, 1-(2-{[4-({4-[{3-[({[(2S)-1′-{2-[(5R)-3-[3,5-Bis(trifluoromethyl)benzoyl]-5-(4-fluorophenyl)-1,3-oxazolidin-5-yl]ethyl}-2,3-dihydrospiro[indene-1,4′-piperidin]-2-yl]oxy}acetyl)(methyl)amino]propyl}(methyl)carbamoyl]phenyl}amino)butanoyl](methyl)amino}ethyl)piperidin-4-yl biphenyl-2-ylcarbamate trihydrochloride] showed an ID50 of 0.0251 mg/kg. Besides, in test [2], the ED50 was 0.03 mg/kg.
The corresponding values for `CN(CCN1CCC(OC(=O)Nc2ccccc2-c2ccccc2)CC1)C(=O)CCNc1ccc(C(=O)N(C)CCCN(C)C(=O)CO[C@H]2Cc3ccccc3C23CCN(CC[C@@]2(c4ccc(F)cc4)CN(C(=O)c4cc(C(F)(F)F)cc(C(F)(F)F)c4)CO2)CC3)cc1` [Example 94, 1-{2-[(N-{4-[{3-[({[(2S)-1′-{2-[(5R)-3-[3,5-Bis(trifluoromethyl)benzoyl]-5-(4-fluorophenyl)-1,3-oxazolidin-5-yl]ethyl}-2,3-dihydrospiro[indene-1,4′-piperidin]-2-yl]oxy}acetyl)(methyl)amino]propyl}(methyl)carbamoyl]phenyl}-β-alanyl)(methyl)amino]ethyl}piperidin-4-yl biphenyl-2-ylcarbamate] are 0.0395 mg/kg and 0.0431 mg/kg.
